Measurements: US10633386B2, “BET protein degraders” (THE REGENTS OF THE UNIVERSITY OF MICHIGAN, priority 2016, dated 2020)

Experiments:
TNBC cell lines = experiment: Combination apoptosis induction (immunoblotting and/or Annexin-PI staining); type: cell-based; conditions: TNBC cell lines (FIGS. 15 and 16; ABT-263 data not shown)
Experimental: Immunoblotting and/or Annexin-PI staining confirmed that BM-1197 (250 nM), ABT-263 (250 nM), and A-1155463 (250 nM) potentiated Cpd. No. 4-induced apoptosis (50 nM) in MDA-MB-468 (FIG. 14) and other TNBC cell lines (data not shown). Synergistic induction of apoptosis by Cpd. […] No. 4-induced apoptosis in these cell lines. […] A with either BM-1197 (FIGS. 15 and 16) or ABT-263 (data not shown). […] No. 4 and BM-1197 was also detected in additional TNBC cell lines responsive to Cpd. No. 4-induced apoptosis (BT-20 and MDA-MB-157) (data not shown), further supporting that BCL-XL inhibitors potentiate Cpd. No. 4-induced apoptosis in TNBC.

K61 = experiment: Cell growth inhibition (CellTiter-Glo), leukemia line K61; type: cell-based
Experimental: (§1) Cell growth inhibitory activity of representative BET bromodomain degraders in representative non-small cell lung cancer cell lines was determined using the CellTiter-Glo® Luminescent Cell Viability Assay. Cells were seeded in 384-well white opaque cell culture plates at a density of 2,000 cells/well with serially diluted compounds and incubated at 37° C. in an atmosphere of 95% air and 5% CO2 for 4 days. Cell viability was determined using the CellTiter-Glo® Luminescent Cell Viability Assay Kit (Promega, Madison, Wis.) according to the manufacture's instruction. Briefly, a volume of CellTiter-Glo® Reagent equal to the volume of cell culture medium was added to each well, and then the plates were incubated at room temperature for 10-20 minutes. The luminescent signal was measured using a Tecan Infinite M1000 multimode microplate reader (Tecan, Morrisville, N.C.). The half maximal inhibitory concentration (IC50) was calculated using the GraphPad Prism 5 software (GraphPad Software, La Jolla, Calif.). Cpd. A is a BET bromodomain inhibitor, see U.S. Appl. No. 62/121,637, having the following structure: Cell growth inhibitory activity of representative BET bromodomain degraders in representative leukemia cell lines, see Table 8, was determined as described in Example 17.

RS4; 11 = experiment: Cell growth inhibition (CellTiter-Glo), leukemia line RS4; 11; type: cell-based; conditions: Homo sapiens, 11 leukemia cell line
Experimental: as §1

MCL1 protein = experiment: PD analysis of MCL1 protein in WHIM24 tumors; type: in vivo, mice; conditions: at as early as 3 h after treatment (data not shown)
Experimental: (§2) Cpd. […] A at 50 mg/kg, daily, oral dosing, 5 days a week for 3 weeks. Cpd. […] Neither Cpd. A nor Cpd. No. 4 caused significant weight loss (data not shown) or apparent toxicity in this model. […] No. 4 (10 mg/kg) reduced the levels of BET proteins by >80% at as early as 1 h and this effect lasted for at least 9 h in WHIM24 tumors (data not shown). […] No. 4 treatment (data not shown). […] No. 4 is reversible once the drug is cleared from the tumor tissue.

[1] = Pharmacokinetics (PK) analysis in tumor bearing mice; type: in vivo
Experimental: as §2

Mono-Mac6 = experiment: Cell growth inhibition (CellTiter-Glo), leukemia line Mono-Mac6; type: cell-based; conditions: Homo sapiens, MONO-MAC-6
Experimental: as §1

AML-5 = experiment: Cell growth inhibition (CellTiter-Glo), leukemia line AML-5; type: cell-based; conditions: AML-5 leukemia cell line
Experimental: as §1

AML-193 = experiment: Cell growth inhibition (CellTiter-Glo), leukemia line AML-193; type: cell-based; conditions: AML-193 leukemia cell line
Experimental: as §1

AML-3 = experiment: Cell growth inhibition (CellTiter-Glo), leukemia line AML-3; type: cell-based; conditions: AML3; AML-3 leukemia cell line
Experimental: as §1

MDA-MB-468 xenograft = experiment: In vivo antitumor activity in MDA-MB-468 xenograft model; parameters: species or system SCID mice
Experimental: (§3) For the in vivo efficacy experiments of this example, when tumors reached 80-200 mm^3, SCID mice were randomized into groups. Cpd. A, Cpd. No. 4, Cpd. No. 6, or vehicle control (10% PEG400: 3% Cremophor: 87% PBS, or 2% TPGS:98% PEG200) was given at the dose and duration indicated. Tumor sizes and animal weights were measured 2-3 times per week. Tumor volume (mm^3)=(length×width^2)/2. Tumor growth inhibition was calculated as TGI (%)=(Vc−Vt)/(Vc−Vo)*100, where Vc, Vt are the median of control and treated groups at the end of the study and Vo at the start. All the in vivo studies were performed under an animal protocol approved by the University Committee on Use and Care of Animals of the University of Michigan, in accordance with the recommendations in the Guide for the Care and Use of Laboratory Animals of the National Institutes of Health.
(§4) No. 4 was determined in xenograft tumor models of TNBC cell lines.

MOLM16 = experiment: Cell growth inhibition (CellTiter-Glo), leukemia line MOLM16; type: cell-based
Experimental: as §1

MDA-MB-231 xenograft = experiment: In vivo antitumor activity in MDA-MB-231 xenograft model (Example 25); parameters: species or system SCID mice
Experimental: as §3, §4

SKML = experiment: Cell growth inhibition (CellTiter-Glo), leukemia line SKML; type: cell-based
Experimental: as §1

CCn1nc(C2CC2)cc1Nc1nc(COC)nc2[nH]c3cc(-c4c(C)noc4C)c(OC)cc3c12 [Cpd. A, reference compound]
synergism with either BM-1197 or ABT-263 (TNBC cell lines): No clear synergism

CCn1nc(C2CC2)cc1Nc1nc(C(=O)NCCCOCCOCCOCCCNc2cccc3c2C(=O)N(C2CCC(=O)NC2=O)C3=O)nc2[nH]c3cc(-c4c(C)noc4C)c(OC)cc3c12 (stereo not drawn) [Cpd. No. 4]
IC50 (K61): 11.8 µM | IC50 (RS4; 11): 0.05 µM | MCL1 protein levels in tumors (MCL1 protein): markedly reduced | drug exposure in the xenograft tumor tissue ([1]; MDA-MB-231 and MDA-MB-468 models (data not shown)): limited drug exposure | drug exposure in the WHIM24 xenograft tumor tissue ([1]; WHIM24 model): good drug exposure | drug concentrations in both plasma and tumors over time ([1]; single dose 10 mg/kg, WHIM24 tumor bearing mice (data not shown)): diminished rapidly | drug exposure in plasma and WHIM24 tumors ([1]; single dose 10 mg/kg, tumor bearing mice, at 1 and 3 h (data not shown)): reasonable drug exposure | IC50 (Mono-Mac6): 1.4 µM | IC50 (AML-5): 0.5 µM | IC50 (AML-193): 0.04 µM | IC50 (AML-3): 0.4 µM | antitumor activity (MDA-MB-468 xenograft; MDA-MB-468 model, 10 mg/kg, IV, 3 times per week for 2-3 weeks (FIG. 11)): limited or no antitumor activity | tumor growth (MDA-MB-468 xenograft; MDA-MB-468 xenograft model in mice (FIG. 11)): reduce tumor growth | IC50 (MOLM16): 0.3 µM | antitumor activity (MDA-MB-231 xenograft; MDA-MB-231 model, 10 mg/kg, IV, 3 times per week for 2-3 weeks (FIG. 10)): limited or no antitumor activity | tumor growth (MDA-MB-231 xenograft; MDA-MB-231 xenograft model in mice (FIG. 10)): reduce tumor growth | IC50 (SKML): 0.2 µM
